Results as given in US20100075919A1, “COMPOSITIONS COMPRISING ALKYLDIMONIUM HYDROXYPROPYL ALKYLGLUCOSIDES” (priority 2008, published 2010).

What was measured:
A. Niger = test: Preservative efficacy response study against A. Niger in borate-buffered solution; type: cell-based; conditions: S-1218 in the solutions with or without PHMB
Source text: A “preservative-effective amount” is defined as a sufficient amount of alkyldimonium hydroxypropyl alkylglucoside of general formula I or general formula II in the formulation to reduce the cell population by two log orders after 7 days of the five following microorganisms, Staphylococcus aureus, Pseudomonas aeruginosa, Eschrechia coli, Candida albicans and Aspergillus niger, or that which will prevent the growth of fungal bioburden by ±0.5 log.
Data obtained from a preservative efficacy response study of S-1218 with or without the stated concentrations of PHMB in borate-buffered solution containing 0.85 wt. % sodium borate, 0.06 wt. % boric acid and 0.26 wt. % sodium chloride is provided in Tables 3A and 3B. The study also included a response against S. Aureus, P. Aeruginosa, E. Coli, and C. Albicans.
Data obtained from a preservative efficacy response study of select alkyldimonium hydroxypropyl alkylglucosides of general formula I or general formula II in borate-buffered solution containing 0.85 wt. % sodium borate, 0.06 wt. % boric acid and 0.26 wt. % sodium chloride is provided in Table 4. Example 9 includes 0.2 wt. % S-1218; Example 10 includes 0.2 wt. % S-1010P; Example 11 includes 0.2 wt. % L-1210P; and Example 12 includes 0.2 wt. % S-1010. The study also included a response against S. Aureus, P. Aeruginosa, E. Coli, and C. Albicans.

[1] = system: three bacterium and two fungal strains; test: Testing of commercially available alkyldimonium hydroxypropyl alkylglucosides for biocidal efficacy in aqueous buffered borate solution; type: cell-based

## stearyldimonium hydroxypropyl laurylglucosides chloride [Example S-1218]
A. Niger
  biocidal control of A. Niger (in words): significant biocidal control

## stearyldimonium hydropropyl decylglucoside
[1]
  biocidal efficacy (in words): relatively high increase in biocidal efficacy

## stearyl dimonium hydropropyl laurylglucoside
[1]
  biocidal efficacy (in words): relatively high increase in biocidal efficacy
